According to ChEMBL document CHEMBL1201862, “PubChem BioAssay data set” (2004):
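Briefly, cells in 96-well plates were exposed to five compound concentrations for 48 h, and endpoints were estimated by linear interpolation. Here, GI50 denotes the concentration required for 50% inhibition of growth.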 Activity calls are given as the source filed them. No stated cut-off is given here; in the data, active = GI50 up to about 1.1 µM and inactive = higher.

Assays:
Experiment in all cases: NCI anticancer screen, dose series, 48 h
A498 = system: A498
A549 = system: A549
ACHN = system: ACHN
BT-549 = system: BT-549
CCRF-CEM = system: CCRF-CEM
COLO 205 = system: COLO 205
HCT-116 = system: HCT-116
IGROV-1 = system: IGROV-1
KM12 = system: KM12
MDA-MB-231 = system: MDA-MB-231
Malme-3M = system: Malme-3M
NCI-H460 = system: NCI-H460
NCI/ADR-RES = system: NCI/ADR-RES
OVCAR-4 = system: OVCAR-4
SF-268 = system: SF-268
SF-295 = system: SF-295
SF-539 = system: SF-539
SNB-19 = system: SNB-19
UACC-257 = system: UACC-257
UACC-62 = system: UACC-62

| Structure (SMILES) | GI50 (A498) | GI50 (A549) | GI50 (ACHN) | GI50 (BT-549) | GI50 (CCRF-CEM) | GI50 (COLO 205) | GI50 (HCT-116) | GI50 (IGROV-1) | GI50 (KM12) | GI50 (MDA-MB-231) | GI50 (Malme-3M) | GI50 (NCI-H460) | GI50 (NCI/ADR-RES) | GI50 (OVCAR-4) | GI50 (SF-268) | GI50 (SF-295) | GI50 (SF-539) | GI50 (SNB-19) | GI50 (UACC-257) | GI50 (UACC-62) |
| --- | --- | --- | --- | --- | --- | --- | --- | --- | --- | --- | --- | --- | --- | --- | --- | --- | --- | --- | --- | --- |
| CN(CCCNC(=O)c1nn(-c2ccccc2)c2c1ccc1ccccc12)CCCNC(=O)c1nn(-c2ccccc2)c2c1ccc1ccccc12 | 1.65 µM (inactive) | 1.84 µM (inactive) | 1.74 µM (inactive) | 1.68 µM (inactive) | 0.178 µM (active) | 1.65 µM (inactive) | 1.82 µM (inactive) | 1.65 µM (inactive) | 2.16 µM (inactive) | 2.12 µM (inactive) | 1.77 µM (inactive) | 1.76 µM (inactive) | 1.8 µM (inactive) | 1.82 µM (inactive) | 1.98 µM (inactive) | 1.87 µM (inactive) | 1.96 µM (inactive) | 1.79 µM (inactive) | 1.98 µM (inactive) | 1.6 µM (inactive) |
| Cc1ccc(Nc2nc(=S)[nH]c3[nH]ncc23)cc1 | 37 µM (inactive) | 61.2 µM (inactive) | 48.4 µM (inactive) | > 100 µM (inactive) | 1.39 µM (inactive) | 39.5 µM (inactive) | 91.2 µM (inactive) | 30.1 µM (inactive) | 31 µM (inactive) | > 100 µM (inactive) | > 100 µM (inactive) | 64.6 µM (inactive) | > 100 µM (inactive) | 90.4 µM (inactive) | > 100 µM (inactive) | 71.3 µM (inactive) | 65.8 µM (inactive) | > 100 µM (inactive) | 84.5 µM (inactive) | 37.7 µM (inactive) |
| CCCCCCCCCCCCCCCCCCOP(=O)([O-])OC1CC[N+](C)(C)CC1 [PERIFOSINE] | 3.22 µM (inactive) | 10.7 µM (inactive) | 12.4 µM (inactive) | 12.2 µM (inactive) | 0.714 µM (active) | 3.24 µM (inactive) | 7.94 µM (inactive) | 2.18 µM (inactive) | 0.53 µM (active) | 6.89 µM (inactive) | 7.06 µM (inactive) | 1.75 µM (inactive) | 14 µM (inactive) | > 9.95 µM (inactive) | 9.89 µM (inactive) | 4.98 µM (inactive) | 15.6 µM (inactive) | 9.25 µM (inactive) | 19.8 µM (inactive) | 8.39 µM (inactive) |
| CSC(=S)OC1C(CO[Si](C)(C)C(C)(C)C)OC2OC(C)(C)OC21 (stereo not given) | 21.8 µM (inactive) | 25.5 µM (inactive) | 17.1 µM (inactive) | 30.8 µM (inactive) | 16.7 µM (inactive) | 19.2 µM (inactive) | 18.5 µM (inactive) | 18.3 µM (inactive) | 15.6 µM (inactive) | 17.7 µM (inactive) | 14.8 µM (inactive) | 17 µM (inactive) | 14.7 µM (inactive) | 49.4 µM (inactive) | 15.2 µM (inactive) | 17.4 µM (inactive) | 20.2 µM (inactive) | 21 µM (inactive) | 17.1 µM (inactive) | 17 µM (inactive) |
